Data reported in PubChem BioAssay AID248 (DTP/NCI, 2004).
“And” between values parts separate entries of the source, which are not always exact repeats. Equal entries are not always repeated. Inconclusive results and toxic doses are left out. Rule as the data show it: active = T/C of 150% or more; inactive = T/C below 125%.

Tested on: L1210 leukemia ip in BDF1 mice, survival T/C
Experiment: NCI In Vivo Anticancer Drug Screen. Data for tumor model L1210 Leukemia (intraperitoneal) in B6D2F1 (BDF1) mice
Details: endpoint: mean survival time, higher = longer survival
Outline: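 Transplanted-tumor mice were given test agent; controls received vehicle only. Survival readings from the two groups were divided (treated over control).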

[1] = dose: 100.0 mg/kg/injection, schedule: Q01DX009 (ip), vehicle: saline with Tween-80
[2] = dose: 100.0 mg/kg/injection, schedule: Q04DX003 (ip), vehicle: saline with Tween-80
[3] = dose: 200.0 mg/kg/injection, schedule: Q01DX009 (ip), vehicle: saline with Tween-80
[4] = dose: 200.0 mg/kg/injection, schedule: Q04DX003 (ip), vehicle: saline with Tween-80
[5] = dose: 400.0 mg/kg/injection, schedule: Q01DX009 (ip), vehicle: saline with Tween-80
[6] = dose: 400.0 mg/kg/injection, schedule: Q04DX003 (ip), vehicle: saline with Tween-80
[7] = dose: 50.0 mg/kg/injection, schedule: Q01DX001 (ip), vehicle: carboxymethylcellulose (CMC)
[8] = dose: 100.0 mg/kg/injection, schedule: Q01DX001 (ip), vehicle: carboxymethylcellulose (CMC)
[9] = dose: 200.0 mg/kg/injection, schedule: Q01DX001 (ip), vehicle: carboxymethylcellulose (CMC)
[10] = dose: 400.0 mg/kg/injection, schedule: Q01DX001 (ip), vehicle: carboxymethylcellulose (CMC)
[11] = dose: 100.0 mg/kg/injection, schedule: Q01DX001 (ip), vehicle: saline
[12] = dose: 200.0 mg/kg/injection, schedule: Q01DX001 (ip), vehicle: saline
[13] = dose: 400.0 mg/kg/injection, schedule: Q01DX001 (ip), vehicle: saline
[14] = dose: 100.0 mg/kg/injection, schedule: Q01DX009 (ip), vehicle: Klucel (hydroxypropylcellulose) (HPC)
[15] = dose: 100.0 mg/kg/injection, schedule: Q04DX003 (ip), vehicle: Klucel (hydroxypropylcellulose) (HPC)
[16] = dose: 200.0 mg/kg/injection, schedule: Q01DX009 (ip), vehicle: Klucel (hydroxypropylcellulose) (HPC)
[17] = dose: 200.0 mg/kg/injection, schedule: Q04DX003 (ip), vehicle: Klucel (hydroxypropylcellulose) (HPC)
[18] = dose: 400.0 mg/kg/injection, schedule: Q01DX009 (ip), vehicle: Klucel (hydroxypropylcellulose) (HPC)
[19] = dose: 400.0 mg/kg/injection, schedule: Q04DX003 (ip), vehicle: Klucel (hydroxypropylcellulose) (HPC)
[20] = dose: 50.0 mg/kg/injection, schedule: Q01DX009 (ip), vehicle: saline
[21] = dose: 100.0 mg/kg/injection, schedule: Q01DX009 (ip), vehicle: saline
[22] = dose: 100.0 mg/kg/injection, schedule: Q04DX002 (ip), vehicle: Klucel (hydroxypropylcellulose) (HPC)
[23] = dose: 200.0 mg/kg/injection, schedule: Q04DX002 (ip), vehicle: Klucel (hydroxypropylcellulose) (HPC)
[24] = dose: 400.0 mg/kg/injection, schedule: Q04DX002 (ip), vehicle: Klucel (hydroxypropylcellulose) (HPC)
[25] = dose: 25.0 mg/kg/injection, schedule: Q04DX002 (ip), vehicle: Klucel (hydroxypropylcellulose) (HPC)
[26] = dose: 50.0 mg/kg/injection, schedule: Q04DX002 (ip), vehicle: Klucel (hydroxypropylcellulose) (HPC)

Measured: T/C

O=C(NCCCCOc1ccc([N+](=O)[O-])cc1Cl)c1ccc(S(=O)(=O)F)cc1
inactive: [1] 93 % of control | [2] 92 % of control | [3] 93 % of control | [4] 93 % of control | [5] 100 % of control | [6] 111 % of control

CC1([N+](=O)[O-])COP(=O)(NCC2CCCO2)OC1 (configuration not stated)
inactive: [7] 98 % of control | [8] 104 % of control | [9] 104 % of control | [10] 93 % of control

CC1=C(O)c2ccccc2C(=O)C1=O
inactive: dose: 50.0 mg/kg/injection, schedule: Q01DX Z (ip), vehicle: other 93 % of control

CC(C(O)c1ccc2cc(Br)c3ccccc3c2c1)N(C)C (configuration not stated)
inactive: dose: 55.0 mg/kg/injection, schedule: Q01DX Z (ip), vehicle: methylcellulose (MC) 101 % of control | dose: 83.0 mg/kg/injection, schedule: Q01DX Z (ip), vehicle: methylcellulose (MC) 101 % of control | dose: 125.0 mg/kg/injection, schedule: Q01DX Z (ip), vehicle: methylcellulose (MC) 101 % of control

Nc1cccc(CCCCc2ccc(S(=O)(=O)F)cc2)c1
inactive: [11] 101 % of control | [12] 95 % of control | [13] 98 % of control

O=C(Nc1c[nH]c(=O)[nH]c1=O)Oc1ccccc1
inactive: [14] 98 % of control | [15] 100 % of control | [16] 95 % of control | [17] 88 % of control | [18] 93 % of control | [19] 100 % of control

COC1OC(CN(CCOS(C)(=O)=O)S(C)(=O)=O)C2OC(C)(C)OC12 (configuration not stated)
inactive: [20] 95 % of control | dose: 50.0 mg/kg/injection, schedule: Q04DX003 (ip), vehicle: Klucel (hydroxypropylcellulose) (HPC) 116 % of control | [21] 97 % of control | [15] 102 % of control | dose: 200.0 mg/kg/injection, schedule: Q01DX009 (ip), vehicle: saline 95 % of control | [17] 121 % of control | dose: 400.0 mg/kg/injection, schedule: Q01DX009 (ip), vehicle: saline 95 % of control | [19] 104 % of control

Fc1c(F)c(F)c(-c2c(F)c(F)c(-c3c(F)c(F)c(-c4c(F)c(F)c(F)c(F)c4F)c(F)c3F)c(F)c2F)c(F)c1F
inactive: dose: 100.0 mg/kg/injection, schedule: Q01DX001 (ip), vehicle: saline with Tween-80 88 % of control | dose: 200.0 mg/kg/injection, schedule: Q01DX001 (ip), vehicle: saline with Tween-80 88 % of control | dose: 400.0 mg/kg/injection, schedule: Q01DX001 (ip), vehicle: saline with Tween-80 88 % of control

COc1ccc(CSC(=S)Nc2ccc(Cl)c(Cl)c2)cc1
inactive: dose: 50.0 mg/kg/injection, schedule: Q04DX003 (ip), vehicle: saline 101 % of control | dose: 100.0 mg/kg/injection, schedule: Q04DX003 (ip), vehicle: saline 108 % of control | dose: 200.0 mg/kg/injection, schedule: Q04DX003 (ip), vehicle: saline 93 % of control

COC(=O)c1cc2c(cc1[N+](=O)[O-])OCO2
inactive: [22] 114 % of control | [23] 114 % of control | [24] 95 % of control

COc1c(OC)c(OC)c2c(c1OC)c(=O)c1ccccc1n2C
inactive: [7] 93 % of control | [8] 102 % of control | [9] 96 % of control | [10] 98 % of control

c1ccc(Nc2nc(Nc3ccccc3)nc(Nc3ccccc3)n2)cc1
inactive: [25] 92 % of control | [26] 92 % of control | [22] 88 % of control

COc1c(NC(=O)CC(C)=O)ccc2c(C)cc(=O)n(C)c12
inactive: dose: 50.0 mg/kg/injection, schedule: Q01DX001 (ip), vehicle: Klucel (hydroxypropylcellulose) (HPC) 103 % of control | dose: 100.0 mg/kg/injection, schedule: Q01DX001 (ip), vehicle: Klucel (hydroxypropylcellulose) (HPC) 99 % of control | dose: 200.0 mg/kg/injection, schedule: Q01DX001 (ip), vehicle: Klucel (hydroxypropylcellulose) (HPC) 100 % of control

CCCC(C)c1ccc(C(C)=O)cc1 (configuration not stated)
inactive: dose: 25.6 mg/kg/injection, schedule: Q04DX002 (ip), vehicle: saline with Tween-80 100 % of control | dose: 64.0 mg/kg/injection, schedule: Q04DX002 (ip), vehicle: saline with Tween-80 92 % of control | [1] 89 % of control | [2] 91 % of control | dose: 160.0 mg/kg/injection, schedule: Q04DX002 (ip), vehicle: saline with Tween-80 88 % of control | [3] 89 % of control | [4] 96 % of control | [5] 90 % of control | dose: 400.0 mg/kg/injection, schedule: Q04DX002 (ip), vehicle: saline with Tween-80 92 % of control | [6] 88 % of control

NOCc1csc(NC(=O)Nc2ccccc2)n1
inactive: dose: 18.8 mg/kg/injection, schedule: Q01DX009 (ip), vehicle: saline with Tween-80 95 % of control | dose: 37.5 mg/kg/injection, schedule: Q01DX009 (ip), vehicle: saline with Tween-80 103 % of control | dose: 75.0 mg/kg/injection, schedule: Q01DX009 (ip), vehicle: saline with Tween-80 105 % of control

O=C(O)c1cc(Br)c2ccccc2c1O
inactive: dose: 25.0 mg/kg/injection, schedule: Q01DX009 (ip), vehicle: saline sonified 103 % of control | dose: 50.0 mg/kg/injection, schedule: Q01DX009 (ip), vehicle: saline sonified 108 % of control | dose: 100.0 mg/kg/injection, schedule: Q01DX009 (ip), vehicle: saline sonified 100 % of control | [15] 104 % of control

O=C(C(=Nc1ccc(Br)cc1)C(Nc1ccc(Br)cc1)C(=O)c1ccccc1)c1ccccc1 (configuration not stated)
inactive: [11] 96 % of control | [12] 91 % of control | [13] 94 % of control

CCc1nc(N)nc(-c2ccccc2)c1-c1ccc([N+](=O)[O-])cc1O
inactive: [15] 98 % of control | [17] 95 % of control | [19] 97 % of control

C/C=C/CC1(C(C)C)C(=O)NC(=O)NC1=O
inactive: dose: 75.0 mg/kg/injection, schedule: Q01DX001 (ip), vehicle: other 103 % of control | dose: 75.0 mg/kg/injection, schedule: Q01DX001 (ip), vehicle: saline 101 % of control | dose: 150.0 mg/kg/injection, schedule: Q01DX001 (ip), vehicle: other 105 % of control | dose: 150.0 mg/kg/injection, schedule: Q01DX001 (ip), vehicle: saline 104 % of control

O=C(OCc1ccccc1CN1CCOCC1)c1ccc(Br)cc1
inactive: [22] 100 % of control | [23] 92 % of control | [24] 103 % of control

COC(=O)c1cc(C)cc(N(c2ccccc2N)S(=O)(=O)c2ccc(C)cc2)c1C
inactive: [11] 92 % of control | [12] 92 % of control

O=[N+]([O-])c1cc(S(=O)(=O)c2ccc(S)c([N+](=O)[O-])c2)ccc1S
inactive: [22] 89 % of control | [23] 92 % of control | [24] 92 % of control

Cn1nc(N)c2nccnc21
inactive: [20] 98 % of control | [21] 104 % of control | dose: 100.0 mg/kg/injection, schedule: Q04DX003 (ip), vehicle: alcohol 100 % of control | dose: 200.0 mg/kg/injection, schedule: Q04DX003 (ip), vehicle: alcohol 98 % of control

O=C1NCC(CCl)O1 (configuration not stated)
inactive: [11] 101 % of control | [12] 91 % of control | [13] 101 % of control

Cc1ccc(S(=O)(=O)Oc2ccc([N+](=O)[O-])cc2)cc1
inactive: [14] 103 % of control | [15] 97 % of control | [16] 97 % of control | [17] 94 % of control | [18] 102 % of control | [19] 100 % of control

CP(C)(=S)P(C)(C)=S
inactive: [25] 98 % of control | [26] 94 % of control | [22] 95 % of control and 112 % of control

Cc1cc(C)c(NC(=O)Nc2ccccc2C)c(C)c1
inactive: [14] 97 % of control | [15] 108 % of control | [16] 103 % of control | [17] 98 % of control | [18] 99 % of control | [19] 94 % of control
